As usually defined, the pIC50 is the IC50 on a negative log10 scale, so that one unit is a factor of ten. The low end stands for a large IC50, the high end for a small IC50.

The test system of this assay is Endogenous Huntingtin Protein. In words: Endogenous Huntingtin Protein Assay (ELISA-based MSD electrochemiluminescence). It is filed as cell-based. Conditions: Table 1. The procedure, abridged:
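Sandwich MSD electrochemiluminescence immunoassay. Capture used MW1 (expanded polyglutamine) or MAB2166 antibody coated at 1 μg/mL overnight at 4 °C. Samples were bound overnight at 4 °C, then a rabbit monoclonal detection antibody and SULFO-TAG anti-rabbit, each at 0.25 μg/mL, were applied for 1 h at room temperature.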

The structures appear in SMILES notation. pIC50: −log10 of the molar value. A value given as a limit tells only on which side of the number the result lay.

In the case of `CN1C(C)(C)CC(Nc2nc3cnc(-c4cc(F)c5nn(C)cc5c4)cc3s2)CC1(C)C` [Compound 269, 6-(7-fluoro-2-methyl-2H-indazol-5-yl)-N-(1,2,2,6,6-pentamethylpiperidin-4-yl)[1,3]thiazolo[4,5-c]pyridin-2-amine], the pIC50 is 6.30 to 7.00. For `Cc1cn2cc(-c3cc4sc(N(C)C5CC6CCCC(C5)N6C)nc4cn3)cc(C#N)c2n1` (stereo not drawn) [Compound 270, 2-methyl-6-{2-[methyl(9-methyl-9-azabicyclo[3.3.1]non-3-yl)amino][1,3]thiazolo[4,5-c]pyridin-6-yl}imidazo[1,2-a]pyridine-8-carbonitrile] the value was not below 7.00. For `Cc1cn2cc(-c3cc4sc(N(C)C5CC6CCCC(C5)N6C)nc4cn3)cc(F)c2n1` (stereo not drawn) [Compound 271, 6-(8-fluoro-2-methylimidazo[1,2-a]pyridin-6-yl)-N-methyl-N-(9-methyl-9-azabicyclo[3.3.1]non-3-yl)[1,3]thiazolo[4,5-c]pyridin-2-amine] the value was 6.30 to 7.00. `CN(c1nc2cnc(-c3cc(C#N)c4nn(C)cc4c3)cc2s1)C1CC2CCCC(C1)N2C` (stereo not drawn) [Compound 272, 2-methyl-5-{2-[methyl(9-methyl-9-azabicyclo[3.3.1]non-3-yl)amino][1,3]thiazolo[4,5-c]pyridin-6-yl}-2H-indazole-7-carbonitrile] showed a pIC50 of 6.30 to 7.00.

Take `CN(c1nc2cnc(-c3cc(F)c4nn(C)cc4c3)cc2s1)C1CC2CCCC(C1)N2C` (stereo not drawn) [Compound 273, 6-(7-fluoro-2-methyl-2H-indazol-5-yl)-N-methyl-N-(9-methyl-9-azabicyclo[3.3.1]non-3-yl)[1,3]thiazolo[4,5-c]pyridin-2-amine]: the pIC50 is 6.00 to 6.30. Next, `CN(c1nc2ncc(-c3ccc(-c4cn[nH]c4)cc3O)nc2s1)C1CCNCC1` [Compound 274, 2-{2-[methyl(piperidin-4-yl)amino][1,3]thiazolo[4,5-b]pyrazin-6-yl}-5-(1H-pyrazol-yl)phenol]: not below 7.00.

Compound `Cc1nc2c(C#N)cc(-c3ncc4nc(N(C)C5CC(C)(C)NC(C)(C)C5)sc4n3)cc2o1` [Compound 275, 2-methyl-6-{2-[methyl(2,2,6,6-tetramethylpiperidin-4-yl)amino][1,3]thiazolo[5,4-d]pyrimidin-5-yl}-1,3-benzoxazole-4-carbonitrile] gave a pIC50 not below 7.00. Next, `Cc1cn2cc(-c3ccc4nc(N(C)C5CC6CCC(C5)N6)sc4n3)cc(C#N)c2n1` (stereo not drawn) [Compound 276, 6-{2-[(3-exo)-8-azabicyclo[3.2.1]oct-3-yl(methyl)amino][1,3]thiazolo[5,4-b]pyridin-5-yl}-2-methylimidazo[1,2-a]pyridine-8-carbonitrile]: not below 7.00. For `Cc1cn2cc(-c3ccc4nc(N(C)C5CC6CCC(C5)N6)sc4n3)cc(F)c2n1` (stereo not drawn) [Compound 277, N-[(3-exo)-8-azabicyclo[3.2.1]oct-3-yl]-5-(8-fluoro-2-methylimidazo[1,2-a]pyridin-6-yl)-N-methyl[1,3]thiazolo[5,4-b]pyridin-2-amine] the value was 6.30 to 7.00.

`CN(c1nc2ccc(-c3cc(C#N)c4nn(C)cc4c3)nc2s1)C1CC2CCC(C1)N2` (stereo not drawn) [Compound 278, 5-{2-[(3-exo)-8-azabicyclo[3.2.1]oct-3-yl(methyl)amino][1,3]thiazolo[5,4-b]pyridin-5-yl}-2-methyl-2H-indazole-7-carbonitrile] showed a pIC50 not below 7.00. For `Cc1cn2cc(-c3ccc4nc(N(C)C5CC6CCCC(C5)N6)sc4n3)cc(C#N)c2n1` (stereo not drawn) [Compound 279, 6-{2-[(3-exo)-9-azabicyclo[3.3.1]non-3-yl(methyl)amino][1,3]thiazolo[5,4-b]pyridin-5-yl}-2-methylimidazo[1,2-a]pyridine-8-carbonitrile] the value was not below 7.00; for `Cc1cn2cc(-c3ccc4nc(N(C)C5CC6CCCC(C5)N6)sc4n3)cc(F)c2n1` (stereo not drawn) [Compound 280, N-[(3-exo)-9-azabicyclo[3.3.1]non-3-yl]-5-(8-fluoro-2-methylimidazo[1,2-a]pyridin-6-yl)-N-methyl[1,3]thiazolo[5,4-b]pyridin-2-amine], not below 7.00; for `CN(c1nc2ccc(-c3cc(C#N)c4nn(C)cc4c3)nc2s1)C1CC2CCCC(C1)N2` (stereo not drawn) [Compound 281, 5-{2-[(3-exo)-9-azabicyclo[3.3.1]non-3-yl(methyl)amino][1,3]thiazolo[5,4-b]pyridin-5-yl}-2-methyl-2H-indazole-7-carbonitrile], not below 7.00. For `CN(c1nc2nnc(-c3ccc(-c4cn[nH]c4)cc3O)cc2s1)C1CCNCC1` [Compound 282, 2-{6-[methyl(piperidin-4-yl)amino][1,3]thiazolo[4,5-c]pyridazin-3-yl}-5-(1H-pyrazol-4-yl)phenol] the value was not below 7.00; for `CN1CCC(N(C)c2nc3nnc(-c4ccc(-c5cn[nH]c5)cc4O)cc3s2)CC1` [Compound 283, 2-{6-[methyl(1-methylpiperidin-4-yl)amino][1,3]thiazolo[4,5-c]pyridazin-3-yl}-5-(1H-pyrazol-4-yl)phenol], 6.00 to 6.30; for `Cc1cn2cc(-c3ncc4nc(N(C)C5CC6(C)CCC(C)(C5)N6)sc4n3)cc(F)c2n1` [Compound 284, N-[(1R,3s,5S)-1,5-dimethyl-8-azabicyclo[3.2.1]octan-3-yl]-5-(8-fluoro-2-methylimidazo[1,2-a]pyridin-6-yl)-N-methyl[1,3]thiazolo[5,4-d]pyrimidin-2-amine], not below 7.00.

In the case of `Cc1cn2cc(-c3cc4sc(N(C)C5CC6(C)CCC(C)(C5)N6)nc4cn3)cc(C#N)c2n1` [Compound 285, 6-(2-{[(1R,3s,5S)-1,5-dimethyl-8-azabicyclo[3.2.1]octan-3-yl](methyl)amino}[1,3]thiazolo[4,5-c]pyridin-6-yl)-2-methylimidazo[1,2-a]pyridine-8-carbonitrile], the pIC50 was not below 7.00.

Turning to `Cc1cn2cc(-c3cc4sc(N(C)C5CC6(C)CCC(C)(C5)N6)nc4cn3)cc(F)c2n1` [Compound 286, N-[(1R,3s,5S)-1,5-dimethyl-8-azabicyclo[3.2.1]octan-3-yl]-6-(8-fluoro-2-methylimidazo[1,2-a]pyridin-6-yl)-N-methyl[1,3]thiazolo[4,5-c]pyridin-2-amine], the pIC50 is not below 7.00. For `CN(c1nc2cnc(-c3cc(C#N)c4nn(C)cc4c3)cc2s1)C1CC2(C)CCC(C)(C1)N2` [Compound 287, 5-(2-{[(1R,3s,5S)-1,5-dimethyl-8-azabicyclo[3.2.1]octan-3-yl](methyl)amino}[1,3]thiazolo[4,5-c]pyridin-6-yl)-2-methyl-2H-indazole-7-carbonitrile] the value was not below 7.00; for `Cc1cn2cc(-c3cnc4nc(N(C)C5CCNCC5)sc4n3)cc(C)c2n1` [Compound 288, 6-(2,8-dimethylimidazo[1,2-a]pyridin-6-yl)-N-methyl-N-(piperidin-4-yl)[1,3]thiazolo[4,5-b]pyrazin-2-amine], 6.30 to 7.00.

As for `CN(c1nc2cnc(-c3cc(F)c4nn(C)cc4c3)nc2s1)C1CC2(C)CC[C@](C)(C1)N2` (stereo partly drawn) [Compound 289, N-[(1R)-1,5-dimethyl-8-azabicyclo[3.2.1]octan-3-yl]-5-(7-fluoro-2-methyl-2H-indazol-5-yl)-N-methyl[1,3]thiazolo[5,4-d]pyrimidin-2-amine], the pIC50 is not below 7.00.
